Source: patent US4464385A, “Treatment of diabetic complications with hydantoins” (Alcon Laboratories, Inc., priority 1982, dated 1984)

Test system: cataracts in rats
Assay: Prevention or retardation of cataracts in galactose-fed rats
Type: in vivo, rat
Settings: 30% galactose diet, A,C,E 0.0025%, B,D 0.01%
How it was run: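 Rats given test compound mixed into diet (by % of total feed weight; 0.01% designed to supply 20 mg/kg/day) ad libitum for thirty days after a two-day chow acclimatization, twelve animals per treatment. Eyes examined by handheld ophthalmoscope and/or penlight and each eye graded.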

O=C1NC(=O)C2(CCOc3ccc(F)cc32)N1 (stereo not drawn) [E]
21 eyes: Number of Eyes Observed, - (Normal) (Study Day 14)
87.5%: % of Total Eyes, - (Normal) (Study Day 14)
91.7%: % of Total Eyes, S (snowflake) (Study Day 28)
16 eyes: Number of Eyes Observed, S (snowflake) (Study Day 22)
6 eyes: Number of Eyes Observed, ± (Study Day 22)
14 eyes: Number of Eyes Observed, - (Normal) (Study Day 18)
41.6%: % of Total Eyes, S (snowflake) (Study Day 20)
4.2%: % of Total Eyes, + (vacuole) (Study Day 20) | % of Total Eyes, + (vacuole) (Study Day 30)
8.3%: % of Total Eyes, + (vacuole) (Study Day 22) | % of Total Eyes, + (vacuole) (Study Day 28)
1 eyes: Number of Eyes Observed, ± (Study Day 12) | Number of Eyes Observed, + (vacuole) (Study Day 20) | Number of Eyes Observed, ± (Study Day 24) | Number of Eyes Observed, + (vacuole) (Study Day 30)
95.8%: % of Total Eyes, - (Normal) (Study Day 12) | % of Total Eyes, S (snowflake) (Study Day 30)
24 eyes: Number of Eyes Observed, - (Normal) (Study Day 2) | Number of Eyes Observed, - (Normal) (Study Day 3) | Number of Eyes Observed, - (Normal) (Study Day 4) | Number of Eyes Observed, - (Normal) (Study Day 5) | Number of Eyes Observed, - (Normal) (Study Day 6) | Number of Eyes Observed, - (Normal) (Study Day 8) | Number of Eyes Observed, - (Normal) (Study Day 10)
100.0%: % of Total Eyes, - (Normal) (Study Day 2) | % of Total Eyes, - (Normal) (Study Day 3) | % of Total Eyes, - (Normal) (Study Day 4) | % of Total Eyes, - (Normal) (Study Day 5) | % of Total Eyes, - (Normal) (Study Day 6) | % of Total Eyes, - (Normal) (Study Day 8) | % of Total Eyes, - (Normal) (Study Day 10)
20 eyes: Number of Eyes Observed, - (Normal) (Study Day 16) | Number of Eyes Observed, S (snowflake) (Study Day 24) | Number of Eyes Observed, S (snowflake) (Study Day 26)
23 eyes: Number of Eyes Observed, - (Normal) (Study Day 12) | Number of Eyes Observed, S (snowflake) (Study Day 30)
0%: % of Total Eyes, + (vacuole) (Study Day 2) | % of Total Eyes, N (nuclear cataract) (Study Day 2) | % of Total Eyes, S (snowflake) (Study Day 2) | % of Total Eyes, + (vacuole) (Study Day 3) | % of Total Eyes, N (nuclear cataract) (Study Day 3) | % of Total Eyes, S (snowflake) (Study Day 3) | % of Total Eyes, + (vacuole) (Study Day 4) | % of Total Eyes, N (nuclear cataract) (Study Day 4) | % of Total Eyes, S (snowflake) (Study Day 4) | % of Total Eyes, + (vacuole) (Study Day 5) | % of Total Eyes, N (nuclear cataract) (Study Day 5) | % of Total Eyes, S (snowflake) (Study Day 5) | % of Total Eyes, + (vacuole) (Study Day 6) | % of Total Eyes, N (nuclear cataract) (Study Day 6) | % of Total Eyes, S (snowflake) (Study Day 6) | % of Total Eyes, + (vacuole) (Study Day 8) | % of Total Eyes, N (nuclear cataract) (Study Day 8) | % of Total Eyes, S (snowflake) (Study Day 8) | % of Total Eyes, + (vacuole) (Study Day 10) | % of Total Eyes, N (nuclear cataract) (Study Day 10) | % of Total Eyes, S (snowflake) (Study Day 10) | % of Total Eyes, + (vacuole) (Study Day 12) | % of Total Eyes, N (nuclear cataract) (Study Day 12) | % of Total Eyes, S (snowflake) (Study Day 12) | % of Total Eyes, + (vacuole) (Study Day 14) | % of Total Eyes, N (nuclear cataract) (Study Day 14) | % of Total Eyes, S (snowflake) (Study Day 14) | % of Total Eyes, + (vacuole) (Study Day 16) | % of Total Eyes, N (nuclear cataract) (Study Day 16) | % of Total Eyes, S (snowflake) (Study Day 16) | % of Total Eyes, + (vacuole) (Study Day 18) | % of Total Eyes, N (nuclear cataract) (Study Day 18) | % of Total Eyes, S (snowflake) (Study Day 18) | % of Total Eyes, N (nuclear cataract) (Study Day 20) | % of Total Eyes, - (Normal) (Study Day 22) | % of Total Eyes, N (nuclear cataract) (Study Day 22) | % of Total Eyes, - (Normal) (Study Day 24) | % of Total Eyes, N (nuclear cataract) (Study Day 24) | % of Total Eyes, - (Normal) (Study Day 26) | % of Total Eyes, N (nuclear cataract) (Study Day 26) | % of Total Eyes, - (Normal) (Study Day 28) | % of Total Eyes, N (nuclear cataract) (Study Day 28) | % of Total Eyes, - (Normal) (Study Day 30) | % of Total Eyes, N (nuclear cataract) (Study Day 30)
58.4%: % of Total Eyes, - (Normal) (Study Day 18)
83.3%: % of Total Eyes, - (Normal) (Study Day 16) | % of Total Eyes, S (snowflake) (Study Day 24) | % of Total Eyes, S (snowflake) (Study Day 26)
22 eyes: Number of Eyes Observed, S (snowflake) (Study Day 28)
2 eyes: Number of Eyes Observed, + (vacuole) (Study Day 22) | Number of Eyes Observed, + (vacuole) (Study Day 28)
12.5%: % of Total Eyes, - (Normal) (Study Day 20) | % of Total Eyes, + (vacuole) (Study Day 24)
66.7%: % of Total Eyes, S (snowflake) (Study Day 22)
0 eyes: Number of Eyes Observed, + (vacuole) (Study Day 2) | Number of Eyes Observed, N (nuclear cataract) (Study Day 2) | Number of Eyes Observed, S (snowflake) (Study Day 2) | Number of Eyes Observed, ± (Study Day 2) | Number of Eyes Observed, + (vacuole) (Study Day 3) | Number of Eyes Observed, N (nuclear cataract) (Study Day 3) | Number of Eyes Observed, S (snowflake) (Study Day 3) | Number of Eyes Observed, ± (Study Day 3) | Number of Eyes Observed, + (vacuole) (Study Day 4) | Number of Eyes Observed, N (nuclear cataract) (Study Day 4) | Number of Eyes Observed, S (snowflake) (Study Day 4) | Number of Eyes Observed, ± (Study Day 4) | Number of Eyes Observed, + (vacuole) (Study Day 5) | Number of Eyes Observed, N (nuclear cataract) (Study Day 5) | Number of Eyes Observed, S (snowflake) (Study Day 5) | Number of Eyes Observed, ± (Study Day 5) | Number of Eyes Observed, + (vacuole) (Study Day 6) | Number of Eyes Observed, N (nuclear cataract) (Study Day 6) | Number of Eyes Observed, S (snowflake) (Study Day 6) | Number of Eyes Observed, ± (Study Day 6) | Number of Eyes Observed, + (vacuole) (Study Day 8) | Number of Eyes Observed, N (nuclear cataract) (Study Day 8) | Number of Eyes Observed, S (snowflake) (Study Day 8) | Number of Eyes Observed, ± (Study Day 8) | Number of Eyes Observed, + (vacuole) (Study Day 10) | Number of Eyes Observed, N (nuclear cataract) (Study Day 10) | Number of Eyes Observed, S (snowflake) (Study Day 10) | Number of Eyes Observed, ± (Study Day 10) | Number of Eyes Observed, + (vacuole) (Study Day 12) | Number of Eyes Observed, N (nuclear cataract) (Study Day 12) | Number of Eyes Observed, S (snowflake) (Study Day 12) | Number of Eyes Observed, + (vacuole) (Study Day 14) | Number of Eyes Observed, N (nuclear cataract) (Study Day 14) | Number of Eyes Observed, S (snowflake) (Study Day 14) | Number of Eyes Observed, + (vacuole) (Study Day 16) | Number of Eyes Observed, N (nuclear cataract) (Study Day 16) | Number of Eyes Observed, S (snowflake) (Study Day 16) | Number of Eyes Observed, + (vacuole) (Study Day 18) | Number of Eyes Observed, N (nuclear cataract) (Study Day 18) | Number of Eyes Observed, S (snowflake) (Study Day 18) | Number of Eyes Observed, N (nuclear cataract) (Study Day 20) | Number of Eyes Observed, - (Normal) (Study Day 22) | Number of Eyes Observed, N (nuclear cataract) (Study Day 22) | Number of Eyes Observed, - (Normal) (Study Day 24) | Number of Eyes Observed, N (nuclear cataract) (Study Day 24) | Number of Eyes Observed, - (Normal) (Study Day 26) | Number of Eyes Observed, N (nuclear cataract) (Study Day 26) | Number of Eyes Observed, ± (Study Day 26) | Number of Eyes Observed, - (Normal) (Study Day 28) | Number of Eyes Observed, N (nuclear cataract) (Study Day 28) | Number of Eyes Observed, ± (Study Day 28) | Number of Eyes Observed, - (Normal) (Study Day 30) | Number of Eyes Observed, N (nuclear cataract) (Study Day 30) | Number of Eyes Observed, ± (Study Day 30)
4 eyes: Number of Eyes Observed, ± (Study Day 16) | Number of Eyes Observed, + (vacuole) (Study Day 26)
16.7%: % of Total Eyes, + (vacuole) (Study Day 26)
3 eyes: Number of Eyes Observed, ± (Study Day 14) | Number of Eyes Observed, - (Normal) (Study Day 20) | Number of Eyes Observed, + (vacuole) (Study Day 24)
10 eyes: Number of Eyes Observed, ± (Study Day 18) | Number of Eyes Observed, S (snowflake) (Study Day 20) | Number of Eyes Observed, ± (Study Day 20)
